Test results published in patent publication US20040053882A1, “Combination chemotherapy” (priority 2000, published 2004).
pIC50: −log10 of the molar value. Like-named read-outs stand apart in the source and are kept apart here.

Columns and labels:
[1] = system: A2780cisR acquired cisplatin resistant subline; experiment: Growth inhibition (sulforhodamine B assay), A2780cisR; assay type: cell-based, human; settings: for pIC50: A2780cisR, drug alone
Experimental: (§1) Growth inhibition (using the sulforhodamine B assay) was determined for ZDO473 alone, and combined either simultaneously or administered sequentially (following washing) for 24 hours with paclitaxel. The effect of the drug combinations was analysed using median effect analysis.

[2] = system: A2780 E6 (A2780 subline transfected with E6 human papillomavirus gene); experiment: Growth inhibition (sulforhodamine B assay), A2780E6; assay type: cell-based
[3] = system: A2780 human ovarian carcinoma cell line; experiment: cells
Experimental: as §1

[4] = system: CH1 human ovarian carcinoma cell line; experiment: cells; settings: read-out: IC50 growth inhibition
Experimental: as §1

41McisR ovarian line = settings: resistance to cisplatin due to reduced uptake
ADJ/PC6cisR tumour = experiment: Murine acquired cisplatin resistant tumour; settings: tumour totally resistant to other platinum agents
[5] = monotherapy Phase I trial, interim results; cited from earlier work
[6] = system: cisplatin-resistant CH1 ovarian tumour xenograft; experiment: Cisplatin-resistant CH1 ovarian tumour xenograft; settings: even when progressing on cisplatin treatment
human tumour xenografts = experiment: In-vivo studies in human tumour xenografts; settings: compared with cisplatin

With CC(=O)O[C@H]1C(=O)[C@@]2(C)[C@H]([C@H](OC(=O)c3ccccc3)[C@]3(O)C[C@H](OC(=O)[C@H](O)[C@@H](NC(=O)c4ccccc4)c4ccccc4)C(C)=C1C3(C)C)[C@]1(OC(C)=O)CO[C@@H]1C[C@@H]2O [Paclitaxel, paclitaxel, reference compound] the pIC50 ([1]; Homo sapiens) was 8.46, the pIC50 ([2]; Homo sapiens, A2780/E6, drug alone) was 7.68 and the pIC50 ([3]; Homo sapiens, A2780, read-out: IC50 growth inhibition) was 8.60. The pIC50 ([4]; Homo sapiens, Ovarian carcinoma cell) was 8.51.

In the case of Cc1ccccn1.N.[Cl-].[Cl-].[Pt+2] [ZDO473, (SP-4-3)-(cis-amminedichloro-[2-methylpyridine]platinum (II)], the “ability to overcome cisplatin resistance” value (41McisR ovarian line) was “showed the ability to overcome resistance”, the “cross-resistance of A2780cisR” value ([1]; A2780cisR versus A2780) was 4.2 fold and the pIC50 ([1]; 96 hour continuous exposure) was 4.81. The “activity against acquired cisplatin resistant murine tumour” value (ADJ/PC6cisR tumour) was “some activity was seen”, the dose-limiting toxicity [5] was “bone marrow suppression” and the “kidney or nerve toxicity” value [5] was “no evidence of kidney or nerve toxicity”. The “activity versus cisplatin-resistant xenograft” value [6] was “Activity was retained”, the pIC50 ([2]; 96 hour continuous exposure, drug alone) was 5.07 and the “recommended dose for phase II studies, initial” value (every 3 weeks) was 120 mg/m^2. The current recommended dose (patients who tolerate higher doses) was 150 mg/m^2, the “antitumour activity in patients” value (small & non-small cell lung cancer, mesothelioma, head and neck, breast and ovarian cancers) was “Evidence of antitumour activity has been observed” and the “activity in human tumour xenografts” value (human tumour xenografts) was “at least comparable and in some cases superior to that of cisplatin”. The pIC50 ([3]; read-out: IC50 growth inhibition, A2780, 96 hour continuous exposure, drug alone) was 5.43 and the pIC50 ([4]; CH1, 96 hour continuous exposure, drug alone) was 5.48.

For N.N.[Cl][Pt][Cl] [cisplatin, cis-dichlorodiammine platinum (II), reference compound], the “acquired cisplatin resistance of subline” value ([1]; A2780cisR versus A2780) was 15 fold.
